In US11780823B2, “Indazole-3-carboxamides and their use as Wnt/β-catenin signaling pathway inhibitors” (BioSplice Therapeutics, Inc., priority 2011, dated 2023) one finds IC50 data, which are given here for 25 compounds.

In the test the test system is Wnt activity (wnt-responsive SP5 promoter luciferase reporter in SW480 cells). Nature of the test: Wnt reporter screening assay: SP5 promoter-driven firefly luciferase in SW480 cells. Conditions: Homo sapiens; SW480 colon cancer cells with SP5 promoter luciferase reporter; half-log dilutions, ten micromolar top concentration; read 24-40 h after compound addition; normalized to DMSO; read-out: Wnt inhibition. The format is cell-based. Summed up: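 Described as a possible protocol: SW480 cells (APC-mutant colon cancer) stably carrying an SP5 promoter (eight TCF/LEF sites) firefly luciferase reporter, ~10,000 per well. BrightGlo luminescence normalized to DMSO wells for IC50.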
(In a reporter assay the amount or activity of a reporter protein is the signal.)

Regarding `O=C(Nc1ccc(N2CCCCC2)nc1)c1n[nH]c2ccc(-c3cncc(CN4CCCCC4)c3)cc12` [Compound 126, N-(6-(Piperidin-1-yl)pyridin-3-yl)-5-(5-(piperidin-1-ylmethyl)pyridin-3-yl)-1H-indazole-3-carboxamide], the IC50 came to 22 nM. To `O=C(Nc1cccc(F)c1)c1n[nH]c2ccc(-c3cncc(CN4CCCCC4)c3)cc12` [Compound 162, N-(3-Fluorophenyl)-5-(5-(piperidin-1-ylmethyl)pyridin-3-yl)-1H-indazole-3-carboxamide] belongs 426 nM; to `O=C(NC1CCOCC1)c1n[nH]c2ccc(-c3cncc(CN4CCCCC4)c3)cc12` [Compound 163, 5-(5-(Piperidin-1-ylmethyl)pyridin-3-yl)-N-(tetrahydro-2H-pyran-4-yl)-1H-indazole-3-carboxamide], 15400 nM; to `O=C(Nc1cncc(F)c1)c1n[nH]c2ccc(-c3cncc(CN4CCCCC4)c3)cc12` [Compound 168, N-(5-Fluoropyridin-3-yl)-5-(5-(piperidin-1-ylmethyl)pyridin-3-yl)-1H-indazole-3-carboxamide], 66 nM.

Regarding `O=C(Nc1ccc(N2CCC(O)CC2)nc1)c1n[nH]c2ccc(-c3cncc(CN4CCCCC4)c3)cc12` [Compound 169, N-(6-(4-Hydroxypiperidin-1-yl)pyridin-3-yl)-5-(5-(piperidin-1-ylmethyl)pyridin-3-yl)-1H-indazole-3-carboxamide], the IC50 stood at 49 nM.

As to `O=C(Nc1ccc(N2CCCC2)nc1)c1n[nH]c2ccc(-c3cncc(CN4CCC(O)CC4)c3)cc12` [Compound 170, 5-(5-((4-Hydroxypiperidin-1-yl)methyl)pyridin-3-yl)-N-(6-(pyrrolidin-1-yl)pyridin-3-yl)-1H-indazole-3-carboxamide], the IC50 was determined as 43 nM. To `Cc1cc(NC(=O)c2n[nH]c3ccc(-c4cncc(CN5CCCCC5)c4)cc23)cnc1N1CCCC1` [Compound 172, N-(5-Methyl-6-(pyrrolidin-1-yl)pyridin-3-yl)-5-(5-(piperidin-1-ylmethyl)pyridin-3-yl)-1H-indazole-3-carboxamide] belongs 60 nM; to `Cc1cc(NC(=O)c2n[nH]c3ccc(-c4cncc(CN5CCCCC5)c4)cc23)cnc1N1CCC1` [Compound 173, N-(6-(Azetidin-1-yl)-5-methylpyridin-3-yl)-5-(5-(piperidin-1-ylmethyl)pyridin-3-yl)-1H-indazole-3-carboxamide], 36 nM. Take `O=C(Nc1ccc(N2CCC2)nc1)c1n[nH]c2ccc(-c3cncc(CN4CCCCC4)c3)cc12` [Compound 174, N-(6-(Azetidin-1-yl)pyridin-3-yl)-5-(5-(piperidin-1-ylmethyl)pyridin-3-yl)-1H-indazole-3-carboxamide]: the IC50 stood at 48 nM. On to `COc1ccc(NC(=O)c2n[nH]c3ccc(-c4cncc(CN5CCCCC5)c4)cc23)cn1` [Compound 175, N-(6-Methoxypyridin-3-yl)-5-(5-(piperidin-1-ylmethyl)pyridin-3-yl)-1H-indazole-3-carboxamide], for which the IC50 stood at 25 nM. To `Nc1ncc(NC(=O)c2n[nH]c3ccc(-c4cncc(CN5CCCCC5)c4)cc23)cn1` [Compound 176, N-(2-Aminopyrimidin-5-yl)-5-(5-(piperidin-1-ylmethyl)pyridin-3-yl)-1H-indazole-3-carboxamide] belongs 30 nM; to `O=C(Nc1ccc(N2CCNCC2)nc1)c1n[nH]c2ccc(-c3cncc(CN4CCCCC4)c3)cc12` [Compound 177, N-(6-(Piperazin-1-yl)pyridin-3-yl)-5-(5-(piperidin-1-ylmethyl)pyridin-3-yl)-1H-indazole-3-carboxamide], 183 nM. With `O=C(Nc1ccc(O)nc1)c1n[nH]c2ccc(-c3cncc(CN4CCCCC4)c3)cc12` [Compound 178, N-(6-Hydroxypyridin-3-yl)-5-(5-(piperidin-1-ylmethyl)pyridin-3-yl)-1H-indazole-3-carboxamide], the IC50 turned out to be 297 nM.

Take `O=C(Nc1ccc(C(=O)N2CCCC2)nc1)c1n[nH]c2ccc(-c3cncc(CN4CCCCC4)c3)cc12` [Compound 179, 5-(5-(Piperidin-1-ylmethyl)pyridin-3-yl)-N-(6-(pyrrolidine-1-carbonyl)pyridin-3-yl)-1H-indazole-3-carboxamide]: the IC50 is 30 nM.

In the case of `NC(=O)c1ccc(NC(=O)c2n[nH]c3ccc(-c4cncc(CN5CCCCC5)c4)cc23)cn1` [Compound 180, N-(6-carbamoylpyridin-3-yl)-5-(5-(piperidin-1-ylmethyl)pyridin-3-yl)-1H-indazole-3-carboxamide], the IC50 was 13 nM.

With `O=C(NC1CCCC1)c1ccc(NC(=O)c2n[nH]c3ccc(-c4cccnc4)cc23)cn1` [Compound 181, N-(6-(Cyclopentylcarbamoyl)pyridin-3-yl)-5-(pyridin-3-yl)-1H-indazole-3-carboxamide], the IC50 worked out at 38 nM. As to `Nc1cncc(-c2ccc3[nH]nc(C(=O)Nc4ccc(N5CCCCC5)nc4)c3c2)c1` [Compound 182, 5-(5-Aminopyridin-3-yl)-N-(6-(piperidin-1-yl)pyridin-3-yl)-1H-indazole-3-carboxamide], the IC50 came out at 35 nM. On to `O=C(Nc1ccc(N2CCCC2)nc1)c1n[nH]c2ccc(-c3cncc(CN4CCC(F)(F)C4)c3)cc12` [Compound 183, 5-(5-((3,3-Difluoropyrrolidin-1-yl)methyl)pyridin-3-yl)-N-(6-(pyrrolidin-1-yl)pyridin-3-yl)-1H-indazole-3-carboxamide], for which the IC50 was 49 nM.

As to `O=C(NC1CCCC1)c1ccc(NC(=O)c2n[nH]c3ccc(-c4cncc(CN5CCCCC5)c4)cc23)cn1` [Compound 184, N-(6-(Cyclopentylcarbamoyl)pyridin-3-yl)-5-(5-(piperidin-1-ylmethyl)pyridin-3-yl)-1H-indazole-3-carboxamide], the IC50 came out at 40 nM. For `CS(=O)(=O)c1ccc(NC(=O)c2n[nH]c3ccc(-c4cncc(CN5CCCCC5)c4)cc23)cn1` [Compound 185, N-(6-(Methylsulfonyl)pyridin-3-yl)-5-(5-(piperidin-1-ylmethyl)pyridin-3-yl)-1H-indazole-3-carboxamide] the value was 27 nM. As to `CN1CCN(c2cncc(-c3ccc4[nH]nc(C(=O)Nc5ccc(N6CCCC6)nc5)c4c3)c2)CC1` [Compound 186, 5-(5-(4-Methylpiperazin-1-yl)pyridin-3-yl)-N-(6-(pyrrolidin-1-yl)pyridin-3-yl)-1H-indazole-3-carboxamide], the IC50 was 460 nM. Consider `O=C(Nc1ccc(N2CCCC2)nc1)c1n[nH]c2ccc(-c3cncc(N4CCOCC4)c3)cc12` [Compound 187, 5-(5-Morpholinopyridin-3-yl)-N-(6-(pyrrolidin-1-yl)pyridin-3-yl)-1H-indazole-3-carboxamide], for which the IC50 is 215 nM. To `O=C(Nc1cccnc1)c1n[nH]c2ccc(-c3cncc(CN4CCC(F)(F)C4)c3)cc12` [Compound 188, 5-(5-((3,3-Difluoropyrrolidin-1-yl)methyl)pyridin-3-yl)-N-(pyridin-3-yl)-1H-indazole-3-carboxamide] belongs 9 nM; to `O=C(Nc1cccnc1)c1n[nH]c2ccc(-c3cncc(N4CCCC4)c3)cc12` [Compound 189, N-(Pyridin-3-yl)-5-(5-(pyrrolidin-1-yl)pyridin-3-yl)-1H-indazole-3-carboxamide], 85 nM; to `CN(C)Cc1cncc(-c2ccc3[nH]nc(C(=O)Nc4ccc(N5CCCC5)nc4)c3c2)c1` [Compound 190, 5-(5-((Dimethylamino)methyl)pyridin-3-yl)-N-(6-(pyrrolidin-1-yl)pyridin-3-yl)-1H-indazole-3-carboxamide], 1200 nM.
